Active and inactive are the calls of the source. Rule as the data show it, for most assays here: actives have a measured IC50 and inactives only a lower limit.
Legend:
[1] = molecular target: T1, Voltage-dependent T-type calcium channel subunit alpha-1H (Homo sapiens, UniProt O95180); test: Inhibitors of T-Type Calcium Channels. [Related pubchem assays (depositor defined):AID449739, AID463087, AID489005, AID493041, AID504579, AID504584, AID504619, AID504628]; type: functional
[2] = molecular target: T1, Voltage-dependent T-type calcium channel subunit alpha-1H; type: functional
Bcl-2-like protein 10 = Bcl-2-like protein 10 (Homo sapiens, UniProt Q9HD36); test: displacers of TR3 peptide from Bcl-B, primary screen, selectivity assay for Bfl-1 inhibitor project, biochemical, fluorescence polarization, FITC-TR3 peptide (AID 748);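 also: fluorescence polarization from a fluorescein-labelled TR3 peptide binding purified Bcl-B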
Bcl-2-like protein 10, sequence (Q9HD36 whole entry): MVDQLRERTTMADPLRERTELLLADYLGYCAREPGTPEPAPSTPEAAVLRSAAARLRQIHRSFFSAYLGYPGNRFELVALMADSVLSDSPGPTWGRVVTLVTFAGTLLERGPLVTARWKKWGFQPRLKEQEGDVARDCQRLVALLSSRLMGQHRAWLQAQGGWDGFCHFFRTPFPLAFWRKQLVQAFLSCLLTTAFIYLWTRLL

Estrogen receptor = molecular target: T2, Estrogen receptor (Homo sapiens, UniProt P03372);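 also: potency for inhibiting coactivator peptide recruitment to the receptor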
T2 sequence (P03372 whole entry): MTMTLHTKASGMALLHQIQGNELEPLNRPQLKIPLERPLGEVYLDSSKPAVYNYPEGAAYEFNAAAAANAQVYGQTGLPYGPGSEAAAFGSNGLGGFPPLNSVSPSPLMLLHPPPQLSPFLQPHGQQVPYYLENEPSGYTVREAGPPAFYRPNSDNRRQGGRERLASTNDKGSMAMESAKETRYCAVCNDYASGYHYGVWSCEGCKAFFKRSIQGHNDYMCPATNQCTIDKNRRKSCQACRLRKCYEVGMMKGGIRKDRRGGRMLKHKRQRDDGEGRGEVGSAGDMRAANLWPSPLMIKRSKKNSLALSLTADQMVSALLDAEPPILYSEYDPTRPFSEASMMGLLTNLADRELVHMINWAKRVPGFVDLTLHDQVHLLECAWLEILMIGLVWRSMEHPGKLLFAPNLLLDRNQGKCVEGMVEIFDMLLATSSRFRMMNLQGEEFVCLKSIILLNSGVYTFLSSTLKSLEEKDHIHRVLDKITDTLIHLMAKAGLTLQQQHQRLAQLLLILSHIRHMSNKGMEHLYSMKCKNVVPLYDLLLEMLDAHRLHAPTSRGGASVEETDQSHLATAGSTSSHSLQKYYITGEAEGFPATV

[3] = molecular target: T3, Dual specificity protein phosphatase 6 (Rattus norvegicus, UniProt Q64346); test: MKP-3 phosphatase inhibitors, primary screen, biochemical, rat enzyme, in vitro (AID 425)
T3 sequence (Q64346 whole entry): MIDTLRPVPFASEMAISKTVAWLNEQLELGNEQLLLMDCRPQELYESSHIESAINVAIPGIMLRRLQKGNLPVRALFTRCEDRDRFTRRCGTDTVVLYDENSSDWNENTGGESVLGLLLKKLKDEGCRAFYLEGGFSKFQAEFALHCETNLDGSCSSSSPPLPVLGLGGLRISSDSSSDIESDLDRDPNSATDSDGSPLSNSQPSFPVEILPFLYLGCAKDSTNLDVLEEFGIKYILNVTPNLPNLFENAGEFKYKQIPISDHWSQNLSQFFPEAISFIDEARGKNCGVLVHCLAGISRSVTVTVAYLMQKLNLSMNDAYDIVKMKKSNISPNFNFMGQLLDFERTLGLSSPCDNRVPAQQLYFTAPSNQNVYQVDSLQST

[4] = molecular target: Glyceraldehyde-3-phosphate dehydrogenase (Homo sapiens, UniProt P04406)
[5] = molecular target: T3, Dual specificity protein phosphatase 6; type: functional
[6] = molecular target: T3, Dual specificity protein phosphatase 6
Estrogen receptor beta [7] = molecular target: T4, Estrogen receptor beta (Homo sapiens, UniProt Q92731); test: ERβ–SRC-3 coactivator interaction inhibitors, confirmation, orthogonal assay, biochemical, ELISA, streptavidin-HRP readout (AID 1060)
T4 sequence (Q92731 whole entry): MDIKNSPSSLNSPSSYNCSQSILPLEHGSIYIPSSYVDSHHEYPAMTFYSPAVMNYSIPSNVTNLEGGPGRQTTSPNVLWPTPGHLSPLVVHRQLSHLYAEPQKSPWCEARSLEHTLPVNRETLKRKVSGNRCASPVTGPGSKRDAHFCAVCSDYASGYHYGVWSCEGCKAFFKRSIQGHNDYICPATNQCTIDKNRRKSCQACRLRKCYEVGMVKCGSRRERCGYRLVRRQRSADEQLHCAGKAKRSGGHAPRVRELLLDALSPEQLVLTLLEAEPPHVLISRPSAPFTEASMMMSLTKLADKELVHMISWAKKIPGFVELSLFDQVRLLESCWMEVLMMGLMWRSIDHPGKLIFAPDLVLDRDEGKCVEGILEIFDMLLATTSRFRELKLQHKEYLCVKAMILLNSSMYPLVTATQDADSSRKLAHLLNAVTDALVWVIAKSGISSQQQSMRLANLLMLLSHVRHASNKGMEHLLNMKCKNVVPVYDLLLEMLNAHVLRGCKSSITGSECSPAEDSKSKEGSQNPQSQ

Ephrin type-A receptor 4 = Ephrin type-A receptor 4 (Mus musculus, UniProt Q03137); test: inhibitors of EphA4 binding to KYL peptide, primary screen, biochemical, colorimetric, mouse EphA4 (AID 689); type: functional
Ephrin type-A receptor 4, sequence (Q03137 whole entry): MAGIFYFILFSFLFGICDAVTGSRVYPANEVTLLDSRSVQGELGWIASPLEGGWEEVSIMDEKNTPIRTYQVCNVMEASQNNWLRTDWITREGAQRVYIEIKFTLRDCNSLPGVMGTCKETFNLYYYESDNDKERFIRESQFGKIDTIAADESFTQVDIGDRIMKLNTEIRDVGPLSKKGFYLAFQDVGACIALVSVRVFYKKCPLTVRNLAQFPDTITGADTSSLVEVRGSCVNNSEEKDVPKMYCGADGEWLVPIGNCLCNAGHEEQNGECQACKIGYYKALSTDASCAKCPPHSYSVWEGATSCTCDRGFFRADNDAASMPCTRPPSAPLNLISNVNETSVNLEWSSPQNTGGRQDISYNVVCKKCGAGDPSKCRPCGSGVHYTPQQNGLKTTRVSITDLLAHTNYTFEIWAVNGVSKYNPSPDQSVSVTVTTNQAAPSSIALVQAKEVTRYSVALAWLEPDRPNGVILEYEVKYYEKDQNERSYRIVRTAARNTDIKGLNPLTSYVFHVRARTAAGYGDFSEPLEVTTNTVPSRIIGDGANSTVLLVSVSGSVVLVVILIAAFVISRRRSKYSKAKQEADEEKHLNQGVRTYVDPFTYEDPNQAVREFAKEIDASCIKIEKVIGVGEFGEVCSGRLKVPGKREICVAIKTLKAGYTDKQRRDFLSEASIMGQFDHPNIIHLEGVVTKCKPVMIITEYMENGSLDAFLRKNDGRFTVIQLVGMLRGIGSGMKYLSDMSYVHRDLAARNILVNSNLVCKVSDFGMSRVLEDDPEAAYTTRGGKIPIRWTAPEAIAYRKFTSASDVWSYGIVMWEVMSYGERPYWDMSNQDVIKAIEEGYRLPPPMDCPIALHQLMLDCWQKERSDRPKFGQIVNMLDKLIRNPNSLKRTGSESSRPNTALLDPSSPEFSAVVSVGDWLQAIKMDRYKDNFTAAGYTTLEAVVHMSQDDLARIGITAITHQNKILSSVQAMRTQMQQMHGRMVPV

Estrogen receptor beta [8] = molecular target: T4, Estrogen receptor beta
[9] = molecular target: T5, Tyrosine-protein phosphatase non-receptor type 7 (Homo sapiens, UniProt P35236); type: functional
T5 sequence (P35236 whole entry): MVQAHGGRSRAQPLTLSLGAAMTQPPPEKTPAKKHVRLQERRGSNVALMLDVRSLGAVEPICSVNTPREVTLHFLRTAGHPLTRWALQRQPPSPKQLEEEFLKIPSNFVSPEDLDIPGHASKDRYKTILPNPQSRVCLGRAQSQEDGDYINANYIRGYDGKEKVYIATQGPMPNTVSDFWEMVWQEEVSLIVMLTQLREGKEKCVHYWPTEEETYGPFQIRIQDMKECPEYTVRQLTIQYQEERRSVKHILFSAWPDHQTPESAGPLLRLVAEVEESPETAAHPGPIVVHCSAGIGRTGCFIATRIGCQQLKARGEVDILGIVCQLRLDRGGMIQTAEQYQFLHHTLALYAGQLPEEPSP

[10] = molecular target: Induced myeloid leukemia cell differentiation protein Mcl-1 (Homo sapiens, UniProt Q07820); type: functional
Induced myeloid leukemia cell differentiation protein Mcl-1, sequence (Q07820 whole entry, the tested form may be a part): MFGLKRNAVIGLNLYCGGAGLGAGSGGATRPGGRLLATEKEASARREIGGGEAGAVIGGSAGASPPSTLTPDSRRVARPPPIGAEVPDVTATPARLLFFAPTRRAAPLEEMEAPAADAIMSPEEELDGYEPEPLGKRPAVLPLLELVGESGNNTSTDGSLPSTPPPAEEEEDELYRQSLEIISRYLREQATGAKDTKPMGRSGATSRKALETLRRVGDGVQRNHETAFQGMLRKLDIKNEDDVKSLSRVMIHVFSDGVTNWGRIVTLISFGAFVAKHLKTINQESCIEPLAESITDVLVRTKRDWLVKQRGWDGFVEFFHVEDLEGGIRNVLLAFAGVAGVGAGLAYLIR

[11] = molecular target: T6, Nucleotide-binding oligomerization domain-containing protein 1 (Homo sapiens, UniProt Q9Y239); test: NOD1 signaling inhibitors, SAR follow-up, revised (AID 2333); type: functional
T6 sequence (Q9Y239 whole entry): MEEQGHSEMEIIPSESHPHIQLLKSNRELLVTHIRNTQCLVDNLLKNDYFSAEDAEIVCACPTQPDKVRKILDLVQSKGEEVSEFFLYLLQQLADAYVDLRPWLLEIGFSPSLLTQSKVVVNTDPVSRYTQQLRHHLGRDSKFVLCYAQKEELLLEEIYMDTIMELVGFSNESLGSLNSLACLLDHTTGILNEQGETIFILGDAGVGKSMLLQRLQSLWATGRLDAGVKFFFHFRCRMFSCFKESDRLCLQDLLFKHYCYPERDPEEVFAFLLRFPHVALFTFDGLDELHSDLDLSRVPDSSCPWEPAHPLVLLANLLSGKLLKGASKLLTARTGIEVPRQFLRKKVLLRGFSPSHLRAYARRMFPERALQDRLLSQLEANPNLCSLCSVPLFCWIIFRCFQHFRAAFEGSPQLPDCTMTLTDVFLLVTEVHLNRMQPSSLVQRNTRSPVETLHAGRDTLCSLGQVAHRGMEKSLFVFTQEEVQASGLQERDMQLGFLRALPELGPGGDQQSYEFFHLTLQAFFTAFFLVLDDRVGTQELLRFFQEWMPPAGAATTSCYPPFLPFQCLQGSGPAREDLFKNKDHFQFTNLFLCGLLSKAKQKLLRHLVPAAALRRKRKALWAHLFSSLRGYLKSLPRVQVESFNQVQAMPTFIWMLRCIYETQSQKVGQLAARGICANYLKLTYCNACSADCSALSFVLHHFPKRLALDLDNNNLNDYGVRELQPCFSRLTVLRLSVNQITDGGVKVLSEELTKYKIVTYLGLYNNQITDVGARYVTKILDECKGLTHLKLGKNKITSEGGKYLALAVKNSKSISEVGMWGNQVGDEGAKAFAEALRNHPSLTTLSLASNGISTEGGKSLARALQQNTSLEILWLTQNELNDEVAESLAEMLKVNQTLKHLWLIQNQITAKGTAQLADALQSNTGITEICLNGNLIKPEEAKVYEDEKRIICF

Tumor necrosis factor = Tumor necrosis factor (Homo sapiens, UniProt P01375); test: TNFa-triggered NF-kB activation inhibitors, SAR follow-up, cell-based, revised (AID 2337); type: functional
HEK293 [12] = test: cells; type: functional, cell-based; conditions: Homo sapiens
HEK293 [13] = test: NOD1 signaling inhibitors, primary screen, cell-based, luminescence, uHTS (AID 1578); type: functional; conditions: Homo sapiens
HEK293 [14] = test: cells; type: functional, cell-based; conditions: Homo sapiens; remark: listed apart in the source
HEK293 [15] = test: cells; conditions: Homo sapiens
[16] = molecular target: Nucleotide-binding oligomerization domain-containing protein 2 (Homo sapiens, UniProt Q9HC29); test: PubChem AID 2334; type: functional
HEK293 [17] = test: NOD2 signaling inhibitors in MDP-stimulated cells, cell-based, uHTS, luminescence (AID 2001); type: functional; conditions: Homo sapiens
X-box-binding protein 1 = X-box-binding protein 1 (Homo sapiens, UniProt P17861); type: functional, Cricetulus griseus;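 also: confirmatory dose-response counter-screen serving a CHOP assay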
X-box-binding protein 1, sequence (P17861 whole entry): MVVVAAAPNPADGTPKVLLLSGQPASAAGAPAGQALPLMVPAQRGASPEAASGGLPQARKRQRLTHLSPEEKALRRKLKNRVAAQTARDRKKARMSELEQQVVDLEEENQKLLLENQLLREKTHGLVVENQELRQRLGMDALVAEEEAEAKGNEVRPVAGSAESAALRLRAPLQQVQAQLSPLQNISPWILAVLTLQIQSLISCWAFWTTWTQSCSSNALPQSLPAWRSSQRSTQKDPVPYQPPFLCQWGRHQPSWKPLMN

[18] = molecular target: T5, Tyrosine-protein phosphatase non-receptor type 7; test: redox-dependent HePTP inhibition, mechanism study, biochemical, fluorescence (AID 2068); type: functional
[19] = molecular target: T7, Dual specificity protein phosphatase 3 (Homo sapiens, UniProt P51452); test: SAR VHR1 Fluorescent Assay for In Vitro dose response studies. [Related pubchem assays (depositor defined):AID1654, AID1661, AID1878, AID1992, AID2004, AID2070, AID2085]; type: functional
T7 sequence (P51452 whole entry): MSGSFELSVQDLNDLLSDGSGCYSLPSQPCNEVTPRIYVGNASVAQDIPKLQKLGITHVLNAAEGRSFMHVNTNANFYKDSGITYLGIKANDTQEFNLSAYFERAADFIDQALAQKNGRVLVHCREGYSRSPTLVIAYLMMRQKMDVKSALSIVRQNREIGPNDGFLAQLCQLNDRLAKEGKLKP

[20] = molecular target: T7, Dual specificity protein phosphatase 3; test: SAR VHR1 absorbance Assay for In Vitro dose response studies. [Related pubchem assays (depositor defined):AID1654, AID1661, AID1878, AID1992, AID2004]

T1 sequence (O95180 whole entry): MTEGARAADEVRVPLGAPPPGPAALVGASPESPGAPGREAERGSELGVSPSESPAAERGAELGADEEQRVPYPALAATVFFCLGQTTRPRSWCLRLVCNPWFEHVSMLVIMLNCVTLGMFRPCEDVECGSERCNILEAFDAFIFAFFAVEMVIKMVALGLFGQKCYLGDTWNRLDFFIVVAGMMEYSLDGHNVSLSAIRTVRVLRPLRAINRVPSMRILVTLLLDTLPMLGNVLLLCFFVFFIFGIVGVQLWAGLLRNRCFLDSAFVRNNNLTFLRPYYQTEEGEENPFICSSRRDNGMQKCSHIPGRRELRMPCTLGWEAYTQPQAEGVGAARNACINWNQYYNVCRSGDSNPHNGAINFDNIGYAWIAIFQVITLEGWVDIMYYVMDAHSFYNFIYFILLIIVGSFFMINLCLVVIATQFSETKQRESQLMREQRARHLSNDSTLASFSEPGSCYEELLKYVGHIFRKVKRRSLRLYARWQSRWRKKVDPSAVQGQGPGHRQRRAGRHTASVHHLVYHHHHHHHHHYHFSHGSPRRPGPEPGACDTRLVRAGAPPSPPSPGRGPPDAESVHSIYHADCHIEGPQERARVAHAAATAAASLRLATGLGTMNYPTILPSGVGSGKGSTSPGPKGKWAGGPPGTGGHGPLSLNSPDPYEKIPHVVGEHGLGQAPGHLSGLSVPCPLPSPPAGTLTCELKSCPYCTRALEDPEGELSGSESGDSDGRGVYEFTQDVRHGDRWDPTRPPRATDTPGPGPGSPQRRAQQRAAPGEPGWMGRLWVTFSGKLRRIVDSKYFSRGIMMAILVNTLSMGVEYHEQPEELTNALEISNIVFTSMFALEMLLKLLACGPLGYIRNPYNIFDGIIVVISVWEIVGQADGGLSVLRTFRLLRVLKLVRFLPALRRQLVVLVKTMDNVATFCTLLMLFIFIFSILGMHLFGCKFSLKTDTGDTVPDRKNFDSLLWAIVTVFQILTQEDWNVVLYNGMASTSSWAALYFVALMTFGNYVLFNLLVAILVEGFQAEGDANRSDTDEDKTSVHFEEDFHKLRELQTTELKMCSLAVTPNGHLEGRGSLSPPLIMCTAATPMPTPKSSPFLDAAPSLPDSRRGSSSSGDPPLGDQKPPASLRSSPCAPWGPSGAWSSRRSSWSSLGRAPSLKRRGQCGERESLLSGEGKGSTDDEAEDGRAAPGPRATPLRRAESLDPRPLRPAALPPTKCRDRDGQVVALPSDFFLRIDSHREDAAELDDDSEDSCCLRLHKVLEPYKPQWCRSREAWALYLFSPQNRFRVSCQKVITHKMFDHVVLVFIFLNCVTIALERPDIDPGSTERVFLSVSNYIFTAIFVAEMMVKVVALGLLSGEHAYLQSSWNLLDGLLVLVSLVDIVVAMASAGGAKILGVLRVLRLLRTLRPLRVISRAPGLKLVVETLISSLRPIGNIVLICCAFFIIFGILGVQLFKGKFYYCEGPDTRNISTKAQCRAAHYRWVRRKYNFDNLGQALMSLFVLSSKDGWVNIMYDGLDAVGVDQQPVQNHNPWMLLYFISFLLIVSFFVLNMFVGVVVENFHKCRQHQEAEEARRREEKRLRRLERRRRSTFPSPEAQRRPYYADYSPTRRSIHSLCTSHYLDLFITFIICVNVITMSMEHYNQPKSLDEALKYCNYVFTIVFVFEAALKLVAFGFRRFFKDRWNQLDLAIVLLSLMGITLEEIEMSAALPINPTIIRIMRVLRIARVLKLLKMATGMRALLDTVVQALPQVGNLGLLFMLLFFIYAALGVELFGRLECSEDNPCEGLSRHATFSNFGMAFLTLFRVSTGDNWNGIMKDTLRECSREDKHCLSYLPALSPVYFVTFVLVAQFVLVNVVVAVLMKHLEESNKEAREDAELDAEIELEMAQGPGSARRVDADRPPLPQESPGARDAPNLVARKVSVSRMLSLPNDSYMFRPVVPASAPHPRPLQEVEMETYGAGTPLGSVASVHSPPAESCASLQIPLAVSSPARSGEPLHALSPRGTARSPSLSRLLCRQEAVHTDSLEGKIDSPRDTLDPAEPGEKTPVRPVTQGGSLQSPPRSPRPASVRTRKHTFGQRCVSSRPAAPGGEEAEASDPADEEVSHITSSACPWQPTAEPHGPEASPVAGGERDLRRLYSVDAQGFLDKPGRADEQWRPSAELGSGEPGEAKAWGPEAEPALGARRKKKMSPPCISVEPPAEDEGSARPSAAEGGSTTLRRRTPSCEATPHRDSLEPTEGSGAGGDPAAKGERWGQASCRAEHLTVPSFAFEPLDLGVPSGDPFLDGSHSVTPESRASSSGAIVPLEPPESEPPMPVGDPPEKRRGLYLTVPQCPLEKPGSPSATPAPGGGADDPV

O=C(Nc1ccccc1)c1ccccc1NS(=O)(=O)c1ccc(Cl)s1
EC50 [1]: 0.808 µM (active)
EC50 [2]: 1.05 µM (active)

COc1ccc(N2Cc3cccc(C(=O)O)c3C2=O)cc1
IC50 (Bcl-2-like protein 10): 4.06 µM (active)
IC50 (Estrogen receptor): 12 µM (active)
IC50 [3]: > 10 µM (not active)
IC50 [4]: > 100 µM (not active)
IC50 [5]: > 100 µM (inactive)
IC50 [6]: > 100 µM (inactive)
IC50 (Estrogen receptor beta [7]): 0.704 µM (not active)
IC50 (Ephrin type-A receptor 4): 9.05 µM (active)
IC50 (Estrogen receptor beta [8]): 2.15 µM (active)
IC50 [9]: > 100 µM (not active)
IC50 [10]: 4.43 µM (active)

CC1CCc2c(sc(NC(=O)c3cccs3)c2C(=O)O)C1 (stereo unspecified)
IC50 [11]: > 20 µM (inactive)
IC50 (Tumor necrosis factor): > 20 µM (inactive)
IC50 (HEK293 [12]): > 20 µM (inactive)
EC50 (HEK293 [13]): > 20 µM (inactive)
IC50 (HEK293 [14]): > 20 µM (inactive)
IC50 (HEK293 [15]): > 20 µM (inactive)
IC50 [16]: > 20 µM (inactive)
IC50 (HEK293 [17]): > 20 µM (inactive)

Cc1ccc(-c2ccc(/C=C(\C#N)C(=O)Nc3cc(C)nn3-c3ccccc3)o2)cc1
Absolute IC50 (XBP1) (X-box-binding protein 1): 10 µM

S=C(NCc1ccccc1)c1cn(CCOc2ccccc2)c2ccccc12
IC50 [18]: > 100 µM (inactive)
IC50 [5]: > 100 µM (inactive)
IC50 [19]: > 100 µM (inactive)
IC50 [20]: > 100 µM (inactive)

Source: ChEMBL document CHEMBL1201862, “PubChem BioAssay data set” (2004)
